# In article PMC9241669, “Allantodapsone is a Pan-Inhibitor of Staphylococcus aureus Adhesion to Fibrinogen, Loricrin, and Cytokeratin 10” (Microbiology Spectrum, 2022):
# Several values for one entry are separate records, joined by “and”; a condition that tells them apart may be missing. Equal entries are not always repeated.
# Experiments:
# L. lactis ClfA = assay: Adhesion of L. lactis ClfA to immobilized fibrinogen; type: cell-based, Lactococcus lactis
# Description: (§1) FIG 1 Allantodapsone inhibits S. aureus Newman adhesion to fibrinogen. Dose response curves for S. aureus Newman (A), L. lactis ClfA (B), and L. lactis ClfB (C) adhesion to fibrinogen. Fibrinogen was used to coat plates at 4°C overnight at 10 μg/mL. Wells were washed with PBS and blocked with 1% BSA. Washed bacteria (OD600 of 1) were mixed with the relevant concentration of allantodapsone or vehicle control (DMSO) for 5 min, and added to the wells, incubating for 2 h at 37°C. Adherent cells were washed, fixed, and stained with crystal violet, and wells further washed. The dye was dissolved in acetic acid and the absorbance measured at 570 nm. IC50 values were generated using GraphPad Prism 9.0 GraphPad software, San Diego, CA. Data are representative of three experiments with error presented as SEM.
# (§2) Adhesion assays were carried out according to Hartford et al. ([37]). Briefly, plates were coated with 10 μg/mL fibrinogen (Calbiochem, Darmstadt, Germany) or 20 μg/mL fibronectin (Sigma-Aldrich, Ireland) for 2 h at 37°C or for 16 h at 4°C. Plates were blocked with 1% BSA at 37°C for 1 h and washed 3 times in PBS. Washed bacteria were incubated at 37°C for 2 h. […] Plates were read at 570 nm on a Wallac Victor2, (Shelton, CT, USA). The minimum adhesion inhibitory concentration (MAIC) was determined as the concentration inhibiting greater than 90% bacterial adhesion. […]
# S. aureus Newman [1] = assay: Adhesion of S. aureus Newman to cytokeratin 10 (CK10); type: cell-based, Staphylococcus aureus; conditions: CK10 10 nM
# Description: FIG 4 Allantodapsone inhibits S. aureus adhesion to loricrin and cytokeratin 10. Dose-response curve for adhesion of S. aureus Newman to GST-L2v loricrin (A) and CK10 (C). (B) Inhibition of recombinant ClfB N2N3 binding to immobilized GST-L2v loricrin by allantodapsone. (D) Inhibition of S. aureus Newman adhesion to GST-L2v loricrin by allantodapsone derivatives. Purified GST-L2v or CK10 were used to coat plates at 4°C overnight. Wells were washed with PBS and blocked with 1% BSA. Washed bacteria (OD600 of 1) were mixed with allantodapsone or vehicle control before being added to the wells and incubated for 2 h at 37°C. Adherent cells were washed, fixed, and stained with crystal violet, and wells further washed. The dye was dissolved in acetic acid, and the absorbance measured at 570 nm. GST-L2v was used at 20 μM in A and D. CK10 was used at 10 nM. […] Bound ClfB was detected using peroxidase-conjugated anti-His monoclonal antibody in an ELISA. […]
# Adhesion assays were carried out according to Hartford et al. ([37]). […] Plates were read at 570 nm on a Wallac Victor2, (Shelton, CT, USA). The minimum adhesion inhibitory concentration (MAIC) was determined as the concentration inhibiting greater than 90% bacterial adhesion.
# S. aureus Newman [2] = assay: Adhesion of S. aureus Newman to GST-L2v loricrin; type: cell-based, Staphylococcus aureus; conditions: for concentration giving full inhibition of adhesion to L2v loricrin: S. aureus Newman, GST-L2v
# Description: FIG 4 Allantodapsone inhibits S. aureus adhesion to loricrin and cytokeratin 10. Dose-response curve for adhesion of S. aureus Newman to GST-L2v loricrin (A) and CK10 (C). (B) Inhibition of recombinant ClfB N2N3 binding to immobilized GST-L2v loricrin by allantodapsone. (D) Inhibition of S. aureus Newman adhesion to GST-L2v loricrin by allantodapsone derivatives. Purified GST-L2v or CK10 were used to coat plates at 4°C overnight. Wells were washed with PBS and blocked with 1% BSA. Washed bacteria (OD600 of 1) were mixed with allantodapsone or vehicle control before being added to the wells and incubated for 2 h at 37°C. Adherent cells were washed, fixed, and stained with crystal violet, and wells further washed. The dye was dissolved in acetic acid, and the absorbance measured at 570 nm. GST-L2v was used at 20 μM in A and D. CK10 was used at 10 nM. Test compounds were incubated with bacteria at 80 μM and normalized to the DMSO vehicle control in D. For data presented in B, recombinant ClfB was incubated with allantodapsone (100 μM) or DMSO (1%) for 30 min prior to being added to wells coated with recombinant GST-L2v loricrin. Bound ClfB was detected using peroxidase-conjugated anti-His monoclonal antibody in an ELISA. The graphs shown are representative of three independent experiments. Statistics were carried out using one-way ANOVA followed by the Dunnett’s posttest using GraphPad Prism version 9.0.
# Adhesion assays were carried out according to Hartford et al. ([37]). Briefly, plates were coated with 10 μg/mL fibrinogen (Calbiochem, Darmstadt, Germany) or 20 μg/mL fibronectin (Sigma-Aldrich, Ireland) for 2 h at 37°C or for 16 h at 4°C. Plates were blocked with 1% BSA at 37°C for 1 h and washed 3 times in PBS. Washed bacteria were incubated at 37°C for 2 h. Adherent bacteria were washed three times in PBS and fixed in 5–9% formaldehyde at room temperature for 30 min. Wells were washed three times in PBS and stained using 5% crystal violet for 20 min. Wells were washed three times in PBS, and the crystal violet solubilized using 5% acetic acid. Plates were read at 570 nm on a Wallac Victor2, (Shelton, CT, USA). The minimum adhesion inhibitory concentration (MAIC) was determined as the concentration inhibiting greater than 90% bacterial adhesion.
# [3] = tested on: platelet aggregation induced by S. aureus Newman; assay: Platelet aggregation induced by S. aureus Newman in platelet rich plasma; type: cell-based, human; conditions: 100 μM allantodapsone, 5 minutes prior to aggregation
# Description: V. Microbiology: Materials and Methods
# The MTT toxicity assay (1) (Vybrant MTT Cell Proliferation Assay, Molecular Probes, Or, USA) was used to measure cytotoxicity. Myeloid lineage, U-937 cells (2) were grown in RPMI-1640 (Gibco) culture medium supplemented with 10% foetal calf serum, 1% L-glutamine and 1% Penicillin/Streptomycin (Gibco). U-937 cells were centrifuged and cells diluted with fresh medium containing 1.2 mM MTT solution to a concentration of (5-6 x 10^6 per mL) and incubated at 37 °C for 2 h. Cells were centrifuged and the pellet dissolved in DMSO. The absorbance was read at 490 nm using the Wallac Victor2, (Shelton, Connecticut, USA).
# Platelet aggregation was performed in platelet rich plasma according to O’Brien et al.
# S. aureus Newman (stationary phase) was washed and diluted to an OD600 of 2.5.
# This was mixed with 10 mg/mL of fibrinogen in 1:1 ratio resulting in a final concentration 5 mg/mL fibrinogen. Fibrinogen -bacteria aggregates clump and settle at the bottom of the tube resulting in a clear solution. These were compared to the turbid bacterial suspension in buffer by visual inspection. […]
# of S. aureus Newman was used as an agonist to stimulate platelet aggregation. […] Data was analysed by repeated measures ANOVA followed by a multiple comparison Dunnett’s test. […]
# L. lactis ClfB = assay: Adhesion of L. lactis ClfB to immobilized fibrinogen; type: cell-based, Lactococcus lactis
# Description: as §1, §2
# [4] = Lactococcus lactis, read-out: IC50, inhibition of adhesion to fibrinogen
smiles,measurement,setting,value
Nc1ccc(S(=O)(=O)c2ccc(NCN3C(=O)NC(=O)C(=O)C3=O)cc2)cc1 [Allantodapsone],minimum adhesion inhibitory concentration (MAIC),"L. lactis ClfA; L. lactis ClfA, fibrinogen",10 μM and 4.0 μg/mL
same,IC50,L. lactis ClfA; [4],3.8 µM
same,inhibition of adhesion to CK10,S. aureus Newman [1],dose dependent inhibition
same,concentration giving full inhibition of adhesion to L2v loricrin,S. aureus Newman [2],40 µM
same,concentration giving full inhibition of adhesion to L2v loricrin,S. aureus Newman [2]; listed as allantodapsone,16.1 µg/mL
same,IC50,"S. aureus Newman [2]; Staphylococcus aureus, NEWMAN, read-out: IC50, inhibition of adhesion to L2v loricrin",9.87 µM
same,inhibition of S. aureus Newman induced platelet aggregation,[3],did not inhibit
same,minimum adhesion inhibitory concentration (MAIC),"L. lactis ClfB; L. lactis ClfB, fibrinogen",33 μM and 13.3 μg/mL
same,IC50,L. lactis ClfB; [4],11 µM
